Here are results for 11 compounds from ChEMBL document CHEMBL5325486, “Synthesis of novobiocin derivatives and evaluation of their antigonococcal activity and pharmacokinetics” (Bioorg Med Chem, 2023).

Converted amounts (≈) assume the structure as drawn. Bounds are passed on as bounds.

The test system of data set [1] is Neisseria gonorrhoeae. Briefly: Antibacterial activity against resistant Neisseria gonorrhoeae assessed inhibition of bacterial growth. The data set is classed as functional.
Data set [2] concerns Staphylococcus aureus. Briefly: Antibacterial activity against Staphylococcus aureus assessed inhibition of bacterial growth. It counts as functional.
A short description of data set [3]: Aqueous solubility of compound in acidic JP1 solution. The data set is classed as physicochemical.
Data set [4] concerns Neisseria gonorrhoeae. Briefly: Antibacterial activity against Neisseria gonorrhoeae clinical isolate assessed inhibition of bacterial growth. The data set is classed as functional.
The nature of data set [5]: Aqueous solubility of compound in neutral JP2 solution. It counts as physicochemical.
A short description of data set [6]: Effective permeability of compound by PAMPA assay. The data set is classed as ADME. The settings on record: read-out: Peff. In general terms: The PAMPA barrier holds no transporters, so it reflects passive diffusion.
The nature of data set [7]: Metabolic stability in mouse liver microsomes assessed as residual rate. It counts as ADME, Microsome. Background: Liver microsomes are vesicles of endoplasmic reticulum, rich in cytochrome P450 enzymes.
Data set [8] concerns Neisseria gonorrhoeae. Nature of the data set: Antibacterial activity against ceftriaxone intermediate resistant Neisseria gonorrhoeae assessed inhibition of bacterial growth. The data set is classed as functional.
For data set [9], the system named is Neisseria gonorrhoeae. Nature of the data set: Antibacterial activity against azithromycin resistant Neisseria gonorrhoeae assessed inhibition of bacterial growth. The data set is classed as functional.
Where [10] appears, read: JP1 solution, read-out: solubility.
[11] abbreviates: JP2 solution, read-out: solubility.

Consider `C#CCONC(=O)O[C@H]1[C@@H](O)[C@H](Oc2ccc3c(O)c(NC(=O)c4ccc(O)c(CC=C(C)C)c4)c(=O)oc3c2C)OC(C)(C)[C@@H]1OC`, for which the MIC50 (commonly the lowest concentration that inhibits either 50% of growth or 50% of the strains tested, depending on the study) is 0.25 µg/mL (≈ 0.375 µM) in data set [1] and 0.063 µg/mL (≈ 0.0945 µM) in [2]. In addition, the MIC90 – broadly, an inhibitory concentration at the 90% level, which refers to growth in some studies and to a panel of isolates in others – in [1] amounted to 0.5 µg/mL (≈ 0.75 µM); in data set [2], 0.063 µg/mL (≈ 0.0945 µM); in data set [4], 0.125 µg/mL (≈ 0.187 µM). For the same compound, the solubility – broadly, the concentration that dissolves in the medium under given conditions – is less than 1 µM in data set [3] (setting [10]) and 69.3 µM (≈ 46.2 µg/mL) in data set [5] (setting [11]). Besides, the Papp in data set [6] was 1.14 ×10⁻⁶ cm/s. In [7], the Stability worked out at 47.2%.
As to `O=c1ccc2ncc(=O)n3c2n1C[C@H]3CN1CCC(NCc2cc3c(cn2)OCCC3)CC1` [GEPOTIDACIN], the solubility in data set [3] (buffer) came to 63.4 µM (≈ 28.4 µg/mL); in data set [5] (buffer), 67 µM (≈ 30.1 µg/mL). The MIC90 in [4] worked out at 0.5 µg/mL (≈ 1.11 µM). Also, the Papp in data set [6] worked out at 4.19 ×10⁻⁶ cm/s. In addition, the Stability in data set [7] turned out to be 107%.
With `CO[C@@H]1[C@@H](OC(=O)c2ccc(C)[nH]2)[C@@H](O)[C@H](Oc2ccc3c(O)c(NC(=O)CN(C)C)c(=O)oc3c2C)OC1(C)C`, the values for the MIC50 in data set [1] and in data set [2] were 2 µg/mL (≈ 3.49 µM) and 1 µg/mL (≈ 1.74 µM), respectively. The values for the MIC90 in data set [1] and in data set [2] were 4 µg/mL (≈ 6.97 µM) and 2 µg/mL (≈ 3.49 µM), respectively. The solubility in data set [3] (setting [10]) and in data set [5] (setting [11]) was greater than 100 µM each time.
With `CO[C@@H]1[C@@H](OC(=O)c2ccc(C)[nH]2)[C@@H](O)[C@H](Oc2ccc3c(O)c(NC(=O)c4cn(C)cn4)c(=O)oc3c2C)OC1(C)C`, the MIC50 in data set [1] was determined as 0.25 µg/mL (≈ 0.419 µM); in [2] it was 0.5 µg/mL (≈ 0.838 µM). Moreover, the results for the MIC90 in [1], in [2] and in data set [4] were 0.5 µg/mL (≈ 0.838 µM), 0.5 µg/mL (≈ 0.838 µM) and 0.25 µg/mL (≈ 0.419 µM), respectively. Also, the solubility in data set [3] (setting [10]) and in [5] (setting [11]) was greater than 80 µM each time. The Papp in data set [6] was determined as 1.61 ×10⁻⁶ cm/s. For the same compound, the Stability in data set [7] came out at 119%.
Consider `CO[C@@H]1[C@@H](OC(=O)c2ccc(C)[nH]2)[C@@H](O)[C@H](Oc2ccc3c(O)c(NC(=O)c4ccnc(C)c4)c(=O)oc3c2C)OC1(C)C`, for which the figures for the MIC50 in data set [1] and in [2] were 0.25 µg/mL (≈ 0.411 µM) and 0.5 µg/mL (≈ 0.823 µM), respectively. The MIC90 in [1] was found to be 0.5 µg/mL (≈ 0.823 µM); in [2], 1 µg/mL (≈ 1.65 µM). Moreover, the solubility in [3] (setting [10]) is 55 µM (≈ 33.4 µg/mL); in data set [5] (setting [11]), 71.8 µM (≈ 43.6 µg/mL). Besides, the Papp in data set [6] was 0.349 ×10⁻⁶ cm/s. Besides, the Stability in [7] is listed as 120%.
Consider `CO[C@@H]1[C@@H](OC(=O)c2ccc(C)[nH]2)[C@@H](O)[C@H](Oc2ccc3c(O)c(NC(=O)CCN(C)C)c(=O)oc3c2C)OC1(C)C`, for which the results for the MIC50 in data set [1] and in data set [2] were 16 µg/mL (≈ 27.2 µM) and 2 µg/mL (≈ 3.4 µM), respectively. In addition, the results for the MIC90 in [1] and in data set [2] were 32 µg/mL (≈ 54.5 µM) and 4 µg/mL (≈ 6.81 µM), respectively. The solubility in data set [3] (setting [10]) and in [5] (setting [11]) was greater than 100 µM throughout.
Regarding `C[C@@H]1CN2c3c(cc4c(N5C(=O)OC[C@@H]5C)noc4c3F)CC3(C(=O)NC(=O)NC3=O)[C@H]2[C@H](C)O1` [ZOLIFLODACIN], the solubility in [3] (setting [10]) was 66.3 µM (≈ 32.3 µg/mL); in [5] (setting [11]) it was 66 µM (≈ 32.2 µg/mL). In [4], the MIC90 amounted to 0.063 µg/mL (≈ 0.129 µM). Further, the Papp in [6] is 0.039 ×10⁻⁶ cm/s. Further, in data set [7], the Stability is given as 94.3%.
With `CO[C@@H]1[C@@H](OC(=O)c2ccc(C)[nH]2)[C@@H](O)[C@H](Oc2ccc3c(O)c(NC(=O)c4ccc(O)c(CC=C(C)C)c4)c(=O)oc3c2C)OC1(C)C`, the results for the MIC in [8] and in [9] were 0.063 µg/mL (≈ 0.0931 µM) and 0.008 µg/mL (≈ 0.0118 µM), respectively. Further, the MIC50 in [1] was 0.063 µg/mL (≈ 0.0931 µM); in data set [2] it was 0.008 µg/mL (≈ 0.0118 µM). Besides, the MIC90 turned out to be 0.125 µg/mL (≈ 0.185 µM) in [1], 0.08 µg/mL (≈ 0.118 µM) in [2] and 0.063 µg/mL (≈ 0.0931 µM) in data set [4]. In addition, the solubility in data set [3] (setting [10]) is less than 1 µM; in data set [5] (setting [11]), 69.2 µM (≈ 46.8 µg/mL). Besides, in data set [6], the Papp is 10.3 ×10⁻⁶ cm/s. Also, the Stability in [7] worked out at 92.7%.
As for `CO[C@@H]1[C@@H](OC(=O)c2ccc(C)[nH]2)[C@@H](O)[C@H](Oc2ccc3c(O)c(NC(=O)c4ccc(C)c(C)c4)c(=O)oc3c2C)OC1(C)C`, the figures for the MIC50 in [1] and in data set [2] were 0.125 µg/mL (≈ 0.201 µM) and 0.016 µg/mL (≈ 0.0258 µM), respectively. For the same compound, the values for the MIC90 in data set [1], in [2] and in [4] were 0.125 µg/mL (≈ 0.201 µM), 0.016 µg/mL (≈ 0.0258 µM) and 0.25 µg/mL (≈ 0.403 µM), respectively. The solubility was less than 1 µM in data set [3] (setting [10]) and 79.1 µM (≈ 49.1 µg/mL) in [5] (setting [11]). In addition, in [6], the Papp was found to be 18 ×10⁻⁶ cm/s. In addition, the Stability in [7] worked out at 80.8%.
As to `C=Cc1cc(C(=O)Nc2c(O)c3ccc(O[C@@H]4OC(C)(C)[C@H](OC)[C@@H](OC(=O)c5ccc(C)[nH]5)[C@H]4O)c(C)c3oc2=O)ccc1N`, the MIC50 in data set [1] and in data set [2] was 0.25 µg/mL (≈ 0.395 µM) each time. Further, the figures for the MIC90 in data set [1], in [2] and in data set [4] were 0.5 µg/mL (≈ 0.789 µM), 0.5 µg/mL (≈ 0.789 µM) and 0.25 µg/mL (≈ 0.395 µM), respectively. The values for the solubility in data set [3] (setting [10]) and in [5] (setting [11]) were 1.79 µM (≈ 1.13 µg/mL) and 65.8 µM (≈ 41.7 µg/mL), respectively. For the same compound, the Papp in [6] stood at 8.06 ×10⁻⁶ cm/s. The Stability in [7] is given as 104%.
With `CC[C@H]1OC(=O)[C@@](C)(F)C(=O)[C@H](C)[C@@H](O[C@@H]2O[C@H](C)C[C@H](N(C)C)[C@H]2O)[C@](C)(OC)C[C@@H](C)C(=O)[C@H](C)[C@H]2N(CCCCn3cc(-c4cccc(N)c4)nn3)C(=O)O[C@]12C` [SOLITHROMYCIN], the solubility in data set [3] (setting [10]) was greater than 80 µM; in [5] (setting [11]), 49.4 µM (≈ 41.7 µg/mL). This compound returned an MIC90 in [4] of 0.25 µg/mL (≈ 0.296 µM). For the same compound, the Papp in [6] stood at 0.653 ×10⁻⁶ cm/s. Besides, the Stability in data set [7] stood at 104%.
